Here are results for three compounds from ChEMBL document CHEMBL1782037, “Discovery and characterization of a nonphosphorylated cyclic peptide inhibitor of the peptidylprolyl isomerase, Pin1” (J Med Chem, 2011).

Series [1] concerns the target T1, Peptidyl-prolyl cis-trans isomerase NIMA-interacting 1 (Homo sapiens, UniProt Q13526). Put plainly: Binding affinity to human Pin1 PPIase domain at 480 uM by NMR chemical shift perturbation method.
Series [2] concerns the target T1, Peptidyl-prolyl cis-trans isomerase NIMA-interacting 1. Put plainly: Binding affinity to human Pin1 WW domain at 480 uM by NMR chemical shift perturbation method.
Series [3] shares this target. Put plainly: Binding affinity to human Pin1 active site at 200 uM by NMR study.
Series [4] has the same target. Put plainly: Binding affinity to human Pin1 PPIase domain at 200 uM by agarose gel electrophoresis.
The target is the same in series [5]. Briefly: Binding affinity to human Pin1 WW domain at 200 uM by agarose gel electrophoresis.
For series [6] the target is unchanged. Briefly: Inhibition of human GST-tagged-Pin1 PPIase activity using Suc-AEPF-pNA as substrate by Michaelis-Menten equation.
For series [7] the target is unchanged. Briefly: Competitive inhibition of human GST-tagged-Pin1 PPIase activity using WFYpSPR-pNA as substrate by Michaelis-Menten equation.
The nature of series [8]: Solubility of the compound. In kind it is physicochemical.

Calls of active or inactive are those of the source. The calls are words filed in the database; no cut-off is given here. Positions of bridges follow the written chain, without caps; N, C: chain ends. Residues, ends and D or L forms follow the SMILES beside them.

A word on the Ki: it is a dissociation constant, usually derived from enzyme kinetics or from competition with a known ligand. High values mean a looser hold on the target, low ones a stronger hold on the target.

T1 sequence (Q13526 whole entry, the tested form may be a part): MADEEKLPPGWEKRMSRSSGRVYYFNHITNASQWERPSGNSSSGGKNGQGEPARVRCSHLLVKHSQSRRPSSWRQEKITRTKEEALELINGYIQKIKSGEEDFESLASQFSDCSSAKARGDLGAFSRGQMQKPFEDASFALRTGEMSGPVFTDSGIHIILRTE

`CC[C@H](C)[C@@H]1NC(=O)[C@H](CCC(=O)O)NC(=O)[C@H](C(C)C)NC(=O)[C@H](CCC(=O)O)NC(=O)[C@@H]2CCCN2C(=O)[C@H](Cc2ccc(O)cc2)NC(=O)[C@H](CCCNC(=N)N)NC(=O)[C@@H](N)CSSC[C@@H](C(=O)O)NC1=O` (H-CRYPEVEIC-OH; disulfide 1-9): the outcome in series [1], in series [3] and in series [4] was Active. Moreover, the outcome in series [2] and in series [5] was inactive.

As to `CC[C@H](C)[C@H](NC(=O)[C@H](CCC(=O)O)NC(=O)[C@@H](NC(=O)[C@H](CCC(=O)O)NC(=O)[C@@H]1CCCN1C(=O)[C@H](Cc1ccc(O)cc1)NC(=O)[C@H](CCCN=C(N)N)NC(=O)[C@@H](N)CS)C(C)C)C(=O)N[C@@H](CS)C(=O)O` [CRYPEVEIC] (H-CRYPEVEIC-OH), the Ki in series [6] was 44 µM.

Consider `CC[C@H](C)[C@@H]1NC(=O)[C@H](CCC(=O)O)NC(=O)[C@H](C(C)C)NC(=O)[C@H](CCC(=O)O)NC(=O)[C@@H]2CCCN2C(=O)[C@H](Cc2ccc(O)cc2)NC(=O)[C@H](CCCN=C(N)N)NC(=O)[C@@H](N)CSSC[C@@H](C(=O)O)NC1=O` [CYCLIC CRYPEVEIC] (H-CRYPEVEIC-OH; disulfide 1-9), for which the Ki in series [6] was found to be 0.52 µM; in series [7] it was 200 nM. The solubility result in series [8] was “soluble”.
